Like-named read-outs stand apart in the source and are kept apart here.
Key:
Meloidogyne incognita = Meloidogyne incognita test (MELGIN); type: in vivo; conditions: 20 ppm, lettuce, after 14 days
Protocol: Meloidogyne incognita test (MELGIN)
Solvent: 125.0 parts by weight of acetone
To produce a suitable active compound formulation, 1 part by weight of active compound is mixed with the stated amount of solvent and the concentrate is diluted with water to the desired concentration.
Vessels are filled with sand, active compound solution, an egg/larvae suspension of the southern root-knot nematode (Meloidogyne incognita) and lettuce seeds. The lettuce seeds germinate and the plants develop. The galls develop on the roots.
After 14 days, the nematicidal efficacy in % is determined by the formation of galls. 100% means that no galls were found; 0% means that the number of galls on the treated plants corresponds to the untreated control.

Haemonchus contortus = Haemonchus contortus test (HAEMCO); type: in vivo; conditions: 20 ppm, larvae of the red stomach worm, after 5 days
Protocol: Haemonchus contortus—test (HAEMCO)
(§1) Solvent: dimethyl sulphoxide
(§2) To produce a suitable preparation of active compound, 10 mg of active compound are mixed with 0.5 ml of dimethyl sulphoxide and the concentrate is diluted with “Ringer's solution” to the desired concentration.
Vessels containing the active compound preparation of the desired concentration are populated with about 40 larvae of the red stomach worm (Haemonchus contortus).
(§3) After 5 days, the kill in % is determined. 100% means that all the larvae has been killed; 0% means that none of the larvae has been killed.

Cooperia curticei = Cooperia curticei test (COOPCU); type: in vivo; conditions: 20 ppm, nematode larvae, after 5 days
Protocol: Cooperia curticei test (COOPCU)
as §1, §2
Vessels containing the active compound preparation of the desired concentration are populated with about 40 nematode larvae (Cooperia curticei).
as §3

[1] = Determination of log P values by HPLC on reversed-phase column (C18); type: physicochemical
Protocol: Unless indicated otherwise, the following method was used to determine the log P values and masses: The determination of the given log P values was carried out in accordance with EEC Directive 79/831 Annex V.A8 by HPLC (High Performance Liquid Chromatography) on a reversed-phase column (C18). […] Mass detection is effected by means of an Agilend MSD system.

Tetranychus urticae = Tetranychus urticae spray test, OP-resistant (TETRUR); type: in vivo; conditions: 500 g/ha, bean leaf discs, after 6 days
Protocol: Tetranychus urticae—spray test, OP-resistant (TETRUR) • Solvent: 78.0 parts by weight of acetone 1.5 parts by weight of dimethylformamide • Emulsifier: alkylaryl polyglycol ether
(§4) To produce a suitable preparation of active compound, 1 part by weight of active compound is dissolved using the stated parts by weight of solvent and made up with water containing an emulsifier concentration of 1000 ppm until the desired concentration is attained. To produce further test concentrations, the preparation is diluted with emulsifier-containing water.
Discs of bean leaves (Phaseolus vulgaris) infested by all stages of the greenhouse red spider mite (Tetranychus urticae) are sprayed with an active compound formulation of the desired concentration.
After 6 days, the efficacy in % is determined. 100% means that all the spider mites have been killed; 0% means that no spider mites have been killed.

Phaedon cochleariae = Phaedon cochleariae spray test (PHAECO); type: in vivo; conditions: 500 g/ha, Chinese cabbage leaf discs, after 7 days
Protocol: Phaedon cochleariae—spray test (PHAECO) • Solvent: 78.0 parts by weight of acetone 1.5 parts by weight of dimethylformamide • Emulsifier: alkylaryl polyglycol ether
as §4
After 7 days, the efficacy in % is determined. 100% means that all the beetle larvae have been killed; 0% means that no beetle larvae have been killed.

Boophilus microplus = Boophilus microplus injection test (BOOPMI inj); type: in vivo; conditions: 20 μg/animal, injection into engorged adult female cattle ticks, assessed after 7 days
Protocol: Boophilus microplus—injection test (BOOPMI inj)
as §1
To produce a suitable preparation of active compound, 10 mg of active compound are mixed with 0.5 ml of solvent and the concentrate is diluted with solvent to the desired concentration.
1 μl of the active compound solution is injected into the abdomen of 5 engorged adult female cattle ticks (Boophilus microplus). The animals are transferred into dishes and kept in a climate-controlled room.
Efficacy is assessed after 7 days by laying of fertile eggs. Eggs which are not visibly fertile are stored in a climate-controlled cabinet until the larvae hatch after about 42 days. An efficacy of 100% means that none of the ticks has laid any fertile eggs; 0% means that all the eggs are fertile.

[2] = formic acid method, read-out: log P(HCOOH)
[3] = neutral, read-out: log P(neutral)

chromatographic logP [1, 2] | chromatographic logP [1, 3] | Compound | efficacy (kill in %) (Haemonchus contortus) | also measured
 |  | O=C(Nc1cnn(-c2c(F)cccc2Cl)c1)c1ccccc1C(F)(F)F [I-1-60] |  | nematicidal efficacy (formation of galls) (Meloidogyne incognita): 90%
 |  | O=C(Nc1cnn(-c2c(F)cccc2F)c1)c1cccnc1C(F)(F)F [I-1-58] | 80% | 
 |  | O=C(Nc1cnn(-c2ncccc2Cl)c1)c1ccccc1I [I-1-22] | 100% | 
 |  | O=C(Nc1cnn(-c2c(F)cccc2C(F)(F)F)c1)c1ccccc1C(F)(F)F [I-1-53] |  | efficacy (kill in %) (Cooperia curticei): 100%
3.56 | 3.52 | CCOC(=O)c1cnn(-c2c(F)cccc2F)c1C(F)(F)F [Ethyl 1-(2,6-difluorophenyl)-5-(trifluoromethyl)-1H-pyrazole-4-carboxylate] |  | 
1.21 | 1.22 | O=C(Nc1cn[nH]c1)c1ccccc1C(F)(F)F [N-(1H-Pyrazol-4-yl)-2-(trifluoromethyl)benzamide] |  | 
2.74 | 2.72 | O=[N+]([O-])c1cnn(-c2c(F)cc(Cl)cc2F)c1 [1-(4-Chloro-2,6-difluorophenyl)-4-nitro-1H-pyrazole] |  | 
 |  | O=C(Nc1cnn(-c2c(F)cccc2F)c1)c1ccccc1Br [I-1-40] | 90% | efficacy (kill in %) (Cooperia curticei): 80%
2.37 | 2.33 | N#Cc1cccc(F)c1-n1cc(NC(=O)c2ccccc2C(F)(F)F)cn1 [I-1-52, N-[1-(2-Cyano-6-fluorophenyl)-1H-pyrazol-4-yl]-2-(trifluoromethyl)benzamide] |  | 
 |  | O=C(Nc1cnn(-c2ncccc2F)c1)c1ccccc1Cl [I-1-17] |  | nematicidal efficacy (formation of galls) (Meloidogyne incognita): 100%
 |  | N#Cc1cccc(C#N)c1-n1cc(NC(=O)c2ccccc2C(F)(F)F)cn1 [I-1-68] |  | nematicidal efficacy (formation of galls) (Meloidogyne incognita): 100%
 |  | O=C(Nc1cnn(-c2c(F)cc(Cl)cc2F)c1Cl)c1ccccc1I [I-1-44] |  | efficacy (spider mites killed) (Tetranychus urticae): 95%
 |  | O=C(Nc1cnn(-c2ncccc2F)c1)c1c(F)cccc1C(F)(F)F [I-1-18] | 80% | 
 |  | O=C(Nc1cnn(-c2cnc(F)c(F)c2)c1)c1c(F)cccc1C(F)(F)F [I-1-36] |  | efficacy (kill in %) (Cooperia curticei): 100%
 |  | O=C(Nc1cnn(-c2ccccc2F)c1)c1ccccc1C(F)(F)F [I-1-8] | 100% | efficacy (kill in %) (Cooperia curticei): 100%; nematicidal efficacy (formation of galls) (Meloidogyne incognita): 90%
 |  | O=C(Nc1cnn(-c2ccccc2F)c1)c1ccccc1I [I-1-7] | 90% | efficacy (kill in %) (Cooperia curticei): 90%; nematicidal efficacy (formation of galls) (Meloidogyne incognita): 90%; efficacy (beetle larvae killed) (Phaedon cochleariae): 83%
 |  | O=C(Nc1cnn(-c2c(F)cccc2F)c1)c1ccccc1Cl [I-1-41] |  | efficacy (beetle larvae killed) (Phaedon cochleariae): 100%
 |  | O=C(Nc1cnn(-c2ncccc2Cl)c1)c1ccccc1C(F)(F)F [I-1-24] | 100% | efficacy (kill in %) (Cooperia curticei): 90%

chromatographic logP [1, 2] | chromatographic logP [1, 3] | Compound | efficacy (kill in %) (Haemonchus contortus) | also measured
0.15 | 1.44 | NNc1c(F)cc(Cl)cc1F [(4-chloro-2,6-difluorophenyl)hydrazine] |  | 
 |  | O=C(Nc1cnn(-c2ncccc2Cl)c1)c1ccccc1Cl [I-1-23] | 90% | nematicidal efficacy (formation of galls) (Meloidogyne incognita): 90%; efficacy (beetle larvae killed) (Phaedon cochleariae): 100%
0.09 | 0.89 | Nc1cnn(-c2c(F)cccc2F)c1 [1-(2,6-Difluorophenyl)-1H-pyrazole-4-amine] |  | 
2.08 | 2.14 | Nc1cnn(-c2c(F)cc(Cl)cc2F)c1Cl [5-Chloro-1-(4-chloro-2,6-difluorophenyl)-1H-pyrazole-4-amine] |  | 
2.14 | 2.13 | Nc1cnn(-c2c(F)cccc2F)c1C(F)(F)F [1-(2,6-Difluorophenyl)-5-(trifluoromethyl)-1H-pyrazole-4-amine] |  | 
 |  | O=C(Nc1cnn(-c2ncccc2F)c1)c1ccccc1Br [I-1-16] |  | nematicidal efficacy (formation of galls) (Meloidogyne incognita): 90%
 |  | O=C(Nc1cnn(-c2ncccc2Cl)c1)c1c(F)cccc1C(F)(F)F [I-1-25] | 100% | efficacy (kill in %) (Cooperia curticei): 90%
 |  | O=C(Nc1cnn(-c2c(F)cccc2F)c1)c1c(F)cccc1C(F)(F)F [I-1-42] | 100% | efficacy (kill in %) (Cooperia curticei): 80%
 |  | O=C(Nc1cnn(-c2cc(F)cnc2F)c1)c1ccccc1I [I-1-33] |  | efficacy (kill in %) (Cooperia curticei): 80%
 |  | O=C(Nc1cnn(-c2ncccc2Br)c1)c1ccccc1C(F)(F)F [I-1-29] |  | efficacy (kill in %) (Cooperia curticei): 80%
2.36 | 2.34 | Fc1cc(Cl)cc(F)c1-n1cccn1 [1-(4-chloro-2,6-difluorophenyl)pyrazole] |  | 
 |  | O=C(Nc1cnn(-c2ncccc2Cl)c1)c1ccccc1Br [I-1-26] | 100% | 
3.61 | 3.58 | CC(C)(C)OC(=O)Nc1cnn(-c2c(F)cccc2F)c1C(F)(F)F [tert-Butyl [1-(2,6-difluorophenyl)-5-(trifluoromethyl)-1H-pyrazol-4-yl]carbamate] |  | 
2.35 | 2.35 | Nc1cnn(-c2c(F)cc(F)cc2F)c1C(F)(F)F [5-(Trifluoromethyl)-1-(2,4,6-trifluorophenyl)-1H-pyrazole-4-amine] |  | 
2.1 | 0.13 | O=C(O)c1cnn(-c2c(F)cccc2F)c1C(F)(F)F [1-(2,6-Difluorophenyl)-5-(trifluoromethyl)-1H-pyrazole-4-carboxylic acid] |  | 
 |  | O=C(Nc1cnn(-c2ncccc2F)c1)c1ccccc1C(F)(F)F [I-1-10] | 90% | efficacy (laying of fertile eggs) (Boophilus microplus): 100%; nematicidal efficacy (formation of galls) (Meloidogyne incognita): 90%
 |  | O=C(Nc1cnn(-c2ncccc2Br)c1)c1c(F)cccc1F [I-1-31] |  | efficacy (beetle larvae killed) (Phaedon cochleariae): 100%
 |  | O=C(Nc1cnn(-c2ncccc2Br)c1)c1ccccc1Cl [I-1-30] |  | efficacy (beetle larvae killed) (Phaedon cochleariae): 83%

Compound | chromatographic logP [1, 2] | chromatographic logP [1, 3] | efficacy (kill in %) (Haemonchus contortus) | also measured
O=C(Nc1cnn(-c2c(F)cccc2F)c1)c1ccccc1C(F)(F)F [I-1-9, N-[1-(2,6-Difluorophenyl)-1H-pyrazol-4-yl]-2-(trifluoromethyl)benzamide] | 2.45 | 2.36 | 100% | efficacy (kill in %) (Cooperia curticei): 100%; nematicidal efficacy (formation of galls) (Meloidogyne incognita): 100%
